“Also recorded” adds a separate entry of the source.

This note sets out measurements from patent US20110009351A1, “SCREENING ASSAY TO IDENTIFY CORRECTORS OF PROTEIN TRAFFICKING DEFECTS” (Traffick Therepeutics Inc., priority 2007, published 2011).

Format in all cases: cell-based
The target in test [1] is T1, wt CFTR (Homo sapiens, UniProt P13569).
T1 construct: which was then ligated into full length pNUT-CFTR linearized using Hpa1 and Pml1; expressed in transfected cells
Kind of test: three stage ELISA of CFTR surface expression, BHK cells expressing wt CFTR. The following applies: 10% glycerol, cells expressing wild-type CFTR. On the procedure: (§1) Cells were screened for CFTR surface expression using a three stage ELISA system (Pierce Inc., USA). Briefly, BHK cells expressing 3HA-tagged ΔF508-CFTR were seeded in 96-well plates (Corning, USA) at 30,000 cells per well and incubated for 24 h at 37° C. Each well was treated with a test compound for 24 h, then cells were fixed in 4% paraformaldehyde solution and washed with PBS containing 0.1% bovine serum albumin and 0.05% tween-20. Cells were blocked for 1 h in solution containing 3% normal horse serum in PBS at room temperature. […] After washing four more times, the cells were exposed to 3,3′,5,5′ tetramethylbenzidine (Pierce Inc., USA) for 15 min, sulphuric acid (2M) was added, and absorbance was measured at 450 nm (Power-Wavex Bio-tek Instruments).
(§2) To determine if cell surface expression of CFTR could be quantified in a high-throughput screen using this assay, cells expressing tagged versions of wt or ΔF508-CFTR were seeded in 96-well plates, treated with 10% glycerol and monitored as light absorbance using an enzyme-linked assay system. As expected, untreated ΔF508-CFTR cells had low absorbance since they expressed little CFTR on their cell surface under control conditions (FIG. 3A).
A general note: In an ELISA, binding on a coated surface is turned into a signal by an enzyme label.

Test [2] addresses T1, wt CFTR. Kind of test: immunoblot and densitometry of mature band C, BHK cells expressing wt CFTR. To be noted: 10% glycerol. As for the experimental part:
(§3) Cell lysates were quantitated by Bradford assay (BioRad) and separated by SDS-PAGE (6% polyacrylamide gels) and analyzed by Western blotting. Western blots were blocked using 5% skimmed milk in PBS, then probed overnight at 4° C. with a primary anti-CFTR antibody at a dilution of 1:1000 monoclonal mouse antibody (clone M3A7, Chemicon). The blots were washed four times in PBS before the addition of the secondary HRP-conjugated anti-mouse antibody, at a dilution of 1:5000 (Amersham) for one hour at room temperature. The blots were washed five times in PBS and probed for chemiluminescence (Pierce). All samples were run with equal protein loading as determined using the Bradford assay (Biorad). Densitometry of the immunoblots was performed using the ImageJ program (National Institutes of Health).

Test [3] addresses T2, ΔF508-CFTR (Homo sapiens, UniProt P13569, DEL508-508). More on the design: which was then ligated into full length pNUT-CFTR linearized using Hpa1 and Pml1; expressed in transfected cells. In outline:
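BHK cells stably expressing 3HA-tagged ΔF508-CFTR (tags in fourth extracellular loop) treated with compound at 20 μM final for 24 h at 37° C. Surface ΔF508-CFTR measured on fixed, non-permeabilised cells by anti-HA/FITC immunofluorescence (488/510 nm), relative to untreated-well background; hits retested in duplicate, intrinsically fluorescent compounds excluded.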

Test [4] addresses T2, ΔF508-CFTR. As to the kind of experiment: three stage ELISA of CFTR surface expression, BHK cells expressing ΔF508-CFTR. To be noted: 10% glycerol or 1 mM sodium 4-phenylbutyrate, 24 hours. More on the design: which was then ligated into full length pNUT-CFTR linearized using Hpa1 and Pml1; expressed in transfected cells. On the procedure: as §1, §2
Test [5] has as its target T2, ΔF508-CFTR. As to the kind of experiment: immunoblot and densitometry of mature band C, BHK cells expressing ΔF508-CFTR. More on the design: which was then ligated into full length pNUT-CFTR linearized using Hpa1 and Pml1; expressed in transfected cells. As for the experimental part:
as §3
Total protein was quantified in cell lysates using the Bradford assay (BioRad, Hercules, Calif.), separated using SDS-PAGE (6% polyacrylamide gels), and analyzed by Western blotting as described previously (Robert et al., 2007). Western blots were blocked with 5% skimmed milk in PBS and probed overnight at 4° C. with a monoclonal primary anti-CFTR antibody (clone M3A7, Chemicon, Temecula, Calif.) diluted 1:1000. The blots were washed four times in PBS before adding the secondary HRP-conjugated anti-mouse antibody at a dilution of 1:5000 (Amersham, Piscataway, N.J.) for one hour at room temperature, then washed again five times in PBS and visualized using chemiluminescence (Pierce, Rockford, Ill.). The relative intensity of each CFTR glycoform (band B or band C) was estimated by densitometry using the ImageJ software and reported as a percentage of the total CFTR in the same lane (i.e. B+C).

The next test addresses T3, F508del CFTR (Homo sapiens, UniProt P13569, DEL508-508).
T3 construct: expressed in transfected cells; host or cells: HEK293 Griptite cells stably expressing F508del CFTR, transiently transfected with halide-sensitive eYFP
Kind of test: YFP fluorescence quenching functional assay (iodide influx), HEK293 cells with F508del CFTR and halide sensitive YFP. The following applies: 10 μM, 24 h. The gist of the method: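 HEK293 Griptite cells stably expressing F508del CFTR, transiently transfected with halide-sensitive eYFP, treated 24 h with 10 μM compound in triplicate, then stimulated 20 min with 25 μM forskolin, 45 μM IBMX and 50 μM genistein. YFP quench after 50 mM iodide imaged 15 times over 40 s on 150-300 cells/well.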

Test [6] deals with T2, ΔF508-CFTR. Kind of test: short-circuit current (Isc) across CFBE41o− monolayers in Ussing chambers. Set-up: expressed in transfected cells; host or cells: CFBE41o- (ΔF508/ΔF508) transduced with ΔF508-CFTR, TranzVector lentivirus, provided by J. P. Clancy. The following applies: 10 μM, 24 h. On the procedure:
Short-circuit current (Isc) was measured across monolayers in modified Ussing chambers. 1×10^6 CFBE41o^− cells were seeded onto 12-mm fibronectin-coated Snapwell inserts (Corning Incorporated, Life Sciences, New-York, N.Y.) and the apical medium was removed after 24 h. Transepithelial resistance was monitored using an EVOM epithelial voltohmmeter (World Precision Instruments, Sarasota, Fla.) and cells were used when the transepithelial resistance was 300-400 ohms·cm^2. In some experiments, F508del-CFBE41o^− monolayers were incubated at 29° C. or treated with glafenine at 37° C. for 24 h before being mounted in EasyMount chambers and voltage clamped using a VCCMC6 multichannel current-voltage clamp (Physiologic Instruments, San Diego, Calif.). The apical membrane conductance was functionally isolated by permeabilizing the basolateral membrane with 200 μg/ml nystatin and imposing an apical-to-basolateral Cl^− gradient. For these experiments the basolateral bathing solution contained (in mM) 1.2 NaCl, 115 Na-gluconate, 25 NaHCO3, 1.2 MgCl2, 4 CaCl2, 2.4, KH2PO4, 1.24 K2HPO4, 10 glucose (pH 7.4 with NaOH). The CaCl2 concentration was increased to 4 mM to compensate for the chelation of calcium by gluconate. The apical bathing solution contained (in mM) 115 NaCl, 25 NaHCO3, 1.2 MgCl2, 1.2 CaCl2, 2.4 KH2PO4, 1.24 K2HPO4, 10 mannitol (pH 7.4 with NaOH). […]

The target in test [7] is T2, ΔF508-CFTR. As to the kind of experiment: iodide efflux assay in BHK cells expressing ΔF508-CFTR. To be noted: 24 hours, BHK. More on the design: which was then ligated into full length pNUT-CFTR linearized using Hpa1 and Pml1; expressed in transfected cells. As for the experimental part: Experiments were performed by hand or with a robotic liquid handling system (BioRobot 8000, Qiagen, USA) using Qiagen 4.1 software. Cells were cultured in 24-well plates until they reached confluence in order to perform parallel experiments and comparison analysis. After treatment (or not) with a test compound, medium in each well was replaced with 1 ml of iodide loading buffer (in mM: 136 NaI, 3 KNO3, 2 Ca(NO3)2, 11 glucose and 20 Hepes pH 7.4) for 1 hour at 37° C. to permit the I′ to reach equilibrium. At the beginning of each experiment, the loading buffer was removed by aspiration and cells were washed eight times with efflux buffer (same as loading buffer except that NaI was replaced with 136 mM NaNO3) to remove extracellular I^− in each well. The loss of intracellular I^− was determined by removing the medium and replacing it with fresh efflux buffer every 1 min for up to 11 min. The first four aliquots were recovered at 1-minute intervals in an empty 24-well plate and used to establish a stable baseline in efflux buffer alone. A stimulation buffer (efflux buffer containing 50 μM genistein+10 μM forskolin) was then added and sampling continued with replacement by stimulation buffer. The iodide concentration of each aliquot was determined using an iodide-sensitive electrode (Orion Research Inc., Boston, Mass., USA or Ecomet) and converted to iodide content (i.e. the amount of iodide released during the 1 min interval). Curves were constructed by plotting concentration versus time. Data are presented as means±SEM.
Iodide effluxes were performed using a robotic liquid handling system (BioRobot 8000, Qiagen, Valencia, Calif.) and Qiagen 4.1 software. Cells were cultured to confluence in 24-well plates. After treatment (or not) with a test compound, the medium in each well was replaced with 1 ml of iodide loading buffer: 136 mM NaI, 3 mM KNO3, 2 mM Ca(NO3)2, 11 mM glucose, 20 mM Hepes, pH 7.4 with NaOH) and incubated for 1 h at 37° C. At the beginning of each experiment, the loading buffer was removed by aspiration and cells were washed eight times with 300 μl efflux buffer (same as loading buffer except that NaI was replaced with 136 mM NaNO3) to remove extracellular I^−. Efflux was measured by replacing the medium with 300 μl fresh efflux buffer at 1 min intervals for up to 11 min. The first four aliquots were used to establish a stable baseline, then buffer containing 10 μM forskolin+50 μM genistein was used to stimulate CFTR activity. Iodide concentration was measured in each aliquot (300 μl) using an iodide-sensitive electrode (Orion Research Inc., Boston, Mass.). Relative iodide efflux rate was calculated using the difference between maximum (peak) iodide concentration during stimulation and minimum iodide concentration before stimulation (in μM/min). […]

Test [8] concerns the target T2, ΔF508-CFTR. As to the kind of experiment: iodide efflux assay in CFBE41o− airway epithelial cells. Set-up: expressed in transfected cells; host or cells: CFBE41o- (ΔF508/ΔF508) transduced with ΔF508-CFTR, TranzVector lentivirus, provided by J. P. Clancy. To be noted: 10 μM pretreatment. As for the experimental part:
Experiments were performed by hand or with a robotic liquid handling system (BioRobot 8000, Qiagen, USA) using Qiagen 4.1 software. Cells were cultured in 24-well plates until they reached confluence in order to perform parallel experiments and comparison analysis. After treatment (or not) with a test compound, medium in each well was replaced with 1 ml of iodide loading buffer (in mM: 136 NaI, 3 KNO3, 2 Ca(NO3)2, 11 glucose and 20 Hepes pH 7.4) for 1 hour at 37° C. to permit the I′ to reach equilibrium. […] The loss of intracellular I^− was determined by removing the medium and replacing it with fresh efflux buffer every 1 min for up to 11 min. […] The iodide concentration of each aliquot was determined using an iodide-sensitive electrode (Orion Research Inc., Boston, Mass., USA or Ecomet) and converted to iodide content (i.e. the amount of iodide released during the 1 min interval). […]
Iodide effluxes were performed using a robotic liquid handling system (BioRobot 8000, Qiagen, Valencia, Calif.) and Qiagen 4.1 software. […] Efflux was measured by replacing the medium with 300 μl fresh efflux buffer at 1 min intervals for up to 11 min. […] Iodide concentration was measured in each aliquot (300 μl) using an iodide-sensitive electrode (Orion Research Inc., Boston, Mass.). […]

T2 sequence (P13569 with tags, fused parts or gaps DEL508-508): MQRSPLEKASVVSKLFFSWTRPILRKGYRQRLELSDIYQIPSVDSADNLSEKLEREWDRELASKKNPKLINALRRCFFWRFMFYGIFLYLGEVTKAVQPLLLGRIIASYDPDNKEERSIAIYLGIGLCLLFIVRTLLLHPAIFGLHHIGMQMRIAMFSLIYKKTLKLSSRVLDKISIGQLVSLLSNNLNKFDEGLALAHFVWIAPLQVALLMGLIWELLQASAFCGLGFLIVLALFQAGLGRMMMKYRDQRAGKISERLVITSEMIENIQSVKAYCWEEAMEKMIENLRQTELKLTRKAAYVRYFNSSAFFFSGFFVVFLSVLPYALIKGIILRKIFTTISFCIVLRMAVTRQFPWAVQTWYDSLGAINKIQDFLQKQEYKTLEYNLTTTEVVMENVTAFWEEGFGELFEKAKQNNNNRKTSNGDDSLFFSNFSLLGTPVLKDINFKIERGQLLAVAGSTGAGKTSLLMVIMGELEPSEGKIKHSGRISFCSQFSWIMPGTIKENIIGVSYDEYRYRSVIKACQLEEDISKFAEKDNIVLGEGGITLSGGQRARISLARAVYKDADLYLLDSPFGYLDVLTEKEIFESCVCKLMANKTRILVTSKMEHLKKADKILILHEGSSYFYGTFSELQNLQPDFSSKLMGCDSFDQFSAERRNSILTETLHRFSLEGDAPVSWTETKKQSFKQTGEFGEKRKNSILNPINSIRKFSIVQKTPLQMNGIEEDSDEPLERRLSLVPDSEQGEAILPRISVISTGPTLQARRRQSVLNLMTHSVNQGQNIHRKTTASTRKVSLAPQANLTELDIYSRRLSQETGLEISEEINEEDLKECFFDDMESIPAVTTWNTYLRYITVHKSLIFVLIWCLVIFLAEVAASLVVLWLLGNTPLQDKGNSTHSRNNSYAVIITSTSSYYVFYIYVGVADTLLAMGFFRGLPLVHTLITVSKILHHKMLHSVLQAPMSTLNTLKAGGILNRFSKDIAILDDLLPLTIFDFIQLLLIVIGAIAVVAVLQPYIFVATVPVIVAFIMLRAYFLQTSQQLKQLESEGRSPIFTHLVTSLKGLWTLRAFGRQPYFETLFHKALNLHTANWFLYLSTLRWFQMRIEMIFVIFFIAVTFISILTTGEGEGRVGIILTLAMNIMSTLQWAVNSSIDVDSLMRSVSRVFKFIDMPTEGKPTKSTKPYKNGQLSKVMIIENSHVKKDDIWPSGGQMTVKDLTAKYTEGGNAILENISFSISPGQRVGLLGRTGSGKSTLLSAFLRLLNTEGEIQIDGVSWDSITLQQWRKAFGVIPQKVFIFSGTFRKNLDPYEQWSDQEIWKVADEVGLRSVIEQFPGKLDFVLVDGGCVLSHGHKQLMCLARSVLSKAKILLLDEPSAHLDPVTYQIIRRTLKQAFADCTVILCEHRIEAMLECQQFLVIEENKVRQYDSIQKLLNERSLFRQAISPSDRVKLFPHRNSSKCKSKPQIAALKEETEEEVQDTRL
T1 sequence (P13569 whole entry): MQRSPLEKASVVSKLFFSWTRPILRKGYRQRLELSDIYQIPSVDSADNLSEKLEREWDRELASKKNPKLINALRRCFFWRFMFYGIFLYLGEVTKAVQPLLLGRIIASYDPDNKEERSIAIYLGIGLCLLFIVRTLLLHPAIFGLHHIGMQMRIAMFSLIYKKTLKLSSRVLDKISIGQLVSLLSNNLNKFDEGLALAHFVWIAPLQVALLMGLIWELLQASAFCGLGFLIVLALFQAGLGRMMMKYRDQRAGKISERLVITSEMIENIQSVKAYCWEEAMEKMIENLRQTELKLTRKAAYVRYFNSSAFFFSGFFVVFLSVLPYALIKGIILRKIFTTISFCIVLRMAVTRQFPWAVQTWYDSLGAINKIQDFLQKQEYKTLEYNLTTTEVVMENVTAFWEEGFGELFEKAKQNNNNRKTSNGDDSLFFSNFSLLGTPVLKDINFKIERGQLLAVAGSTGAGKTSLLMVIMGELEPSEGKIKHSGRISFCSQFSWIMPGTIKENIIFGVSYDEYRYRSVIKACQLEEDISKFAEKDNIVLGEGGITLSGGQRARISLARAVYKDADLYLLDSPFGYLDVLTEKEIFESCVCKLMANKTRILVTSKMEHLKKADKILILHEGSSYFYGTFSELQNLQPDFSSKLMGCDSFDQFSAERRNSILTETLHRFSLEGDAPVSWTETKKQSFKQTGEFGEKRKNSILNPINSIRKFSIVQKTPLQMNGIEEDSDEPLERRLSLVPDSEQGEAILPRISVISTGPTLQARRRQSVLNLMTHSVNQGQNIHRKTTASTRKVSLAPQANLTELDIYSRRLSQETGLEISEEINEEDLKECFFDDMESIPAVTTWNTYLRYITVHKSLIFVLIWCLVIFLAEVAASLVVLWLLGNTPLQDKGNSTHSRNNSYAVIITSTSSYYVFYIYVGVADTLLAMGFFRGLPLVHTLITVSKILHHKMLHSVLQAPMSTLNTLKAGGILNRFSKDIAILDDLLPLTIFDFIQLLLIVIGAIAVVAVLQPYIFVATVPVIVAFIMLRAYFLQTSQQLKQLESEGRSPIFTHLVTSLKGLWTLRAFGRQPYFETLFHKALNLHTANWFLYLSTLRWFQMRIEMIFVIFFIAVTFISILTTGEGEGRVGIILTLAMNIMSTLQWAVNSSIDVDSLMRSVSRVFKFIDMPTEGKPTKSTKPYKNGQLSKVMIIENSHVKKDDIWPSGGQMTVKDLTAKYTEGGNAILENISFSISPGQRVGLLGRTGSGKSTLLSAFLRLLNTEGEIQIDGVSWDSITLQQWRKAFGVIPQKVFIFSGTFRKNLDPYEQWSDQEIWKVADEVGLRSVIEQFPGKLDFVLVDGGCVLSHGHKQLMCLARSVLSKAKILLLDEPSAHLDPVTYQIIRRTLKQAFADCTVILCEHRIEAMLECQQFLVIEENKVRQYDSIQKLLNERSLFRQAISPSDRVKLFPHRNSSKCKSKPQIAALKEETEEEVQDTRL
T3 sequence (P13569 with tags, fused parts or gaps DEL508-508): as the sequence (P13569 with tags, fused parts or gaps DEL508-508) above

As for `OCC(O)CO` [glycerol], at wt CFTR [1], the “increase of plasma membrane signal” value is 2.5 fold. In addition, the “increase of band C by densitometry” value at wt CFTR [2] is reported as 1.5 fold; at ΔF508-CFTR [5] (10% glycerol, ΔF508-CFTR), 37 fold. Also, the “fluorescence increase in comparison with the untreated cells” value at ΔF508-CFTR [3] (10% glycerol, ΔF508-CFTR cells) was 2.7 fold. For the same compound, on ΔF508-CFTR [4], the “plasma membrane signal (absorbance), words” value is given as “increased the plasma membrane signal”.
Take `COc1ccc(S(=O)(=O)N2CCN(C(C)c3nc(OC4CCCCC4)c4ccccc4n3)CC2)cc1` (stereo not shown) [VRT325]: on F508del CFTR, the “functional correction in YFP quenching assay” value is listed as “somewhat larger YFP-quenching response”. Moreover, the “ΔF508-CFTR surface expression increase, normalized to BHK cells expressing wild-type CFTR” value at ΔF508-CFTR [3] (10 μM, 24 h, compared with vehicle alone) came out at 36%. For the same compound, the “forskolin+genistein-stimulated Isc” value at ΔF508-CFTR [6] is “not different from vehicle controls”.
Take `CCCc1nn(C)c2c(=O)[nH]c(-c3cc(S(=O)(=O)N4CCN(C)CC4)ccc3OCC)nc12` [sildenafil]: the “signal in the trafficking assay” value on ΔF508-CFTR [3] (Microsource Discovery library, medium and weak hits, 20 μM, 24 hours) is listed as “consistently elevated signal”. The “increase in the intensity of the mature band C” value at ΔF508-CFTR [5] (after sildenafil treatment) was found to be 30%. The “cAMP-stimulated iodide efflux” value was “did not restore a strong cAMP-stimulated iodide efflux responses; also recorded: did not produce significant iodide efflux” at ΔF508-CFTR [7] (10 μM pretreatment) and “strong cAMP-stimulated iodide efflux was detected; also recorded: function was detected” on ΔF508-CFTR [7] (1 mM). Also, the “iodide efflux” value on ΔF508-CFTR [8] is on record as “negative result”.
